Source: PubChem BioAssay AID2060329 (Molecular Pharmacology Branch, DTP, NCI, 2025)
Several values for one entry are separate records, joined by “and”; a condition that tells them apart may be missing. Identical values can stand only once.

Tested on: MCF7 multi-cell spheroids with HUVEC/MSC, viability
Test: Anticancer human tumor MCF7 cell line growth inhibition [IpAb];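 note: spheroids exposed to agents for seven days before readout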
Conditions: for viability, T/C: stronger effect = lower value
Source text: Combinatorial screen of targeted agents with ipatasertib and abemaciclib in multi-cell type tumor spheroids
A high-throughput screen of multi-cell type tumor spheroids was designed to identify active combinations of targeted small molecules and ipatasertib or abemaciclib. Complex spheroids include a stromal component modeled by human endothelial cells (HUVEC) and fibroblasts modeled by human mesenchymal stem cells (MSCs). The concentration ranges selected for each drug and investigational agent were based upon clinically achievable concentrations if the clinical Cmax of the agent was known.
Compounds. The drugs and investigational agents: ipatasertib (NSC767898), abemaciclib(NSC768073), selumetinib (NSC741078), trametinib (758246), adavosertib (NSC754352), everolimus (NSC733504), sapanisertib (NSC764658), vemurafenib (NSC761431), venetoclax (NSC766270), copanlisib (NSC809693), apelisib (NSC765974), palbociblib (NSC758247), vemurafenib (NSC761431), dabrafenib (NSC764134), ravoxertinib (NSC781343), BMS-387032 (NSC767048), sotorasib (NSC818433), talazoparib (NSC767125) and afursertib (NSC778305), were obtained from the National Cancer Institute (NCI) Developmental Therapeutics Program Chemical Repository. The FDA-approved anticancer drug set is available from the NCI Developmental Therapeutics Program. […] The stock solutions were prepared in dimethyl sulfoxide (DMSO, Sigma-Aldrich, St. Louis, MO, cat. D2650) at 800-fold the tested concentration and stored at -70 degrees C prior to their use. All drugs and investigational agents were tested over a range starting from a high concentration at or near the clinical Cmax and decreasing in half-log increments. If the clinical Cmax for an agent had not been determined, the highest concentration tested was 10 microM.
NCI60 Cell Culture. NCI60 cell lines were obtained from the NCI Developmental Therapeutics Program Tumor Repository. For each lot of cells, the Repository performed Applied Biosystems AmpFLSTR Identifiler testing with PCR amplification to confirm consistency with the published Identifier STR profile for each cell line. Cells were kept in continuous culture for no more than 20 passages. The optimal seeding densities for each of the cell lines at each time point assessed were determined prior to performing the concentration response studies. Briefly, the NCI60 human tumor lines were grown as monolayers in RPMI 1640 medium supplemented with 10% FBS and 2 mmol/L L-glutamine.
An additional 9 lines were from the NCI60 cell line panel including MDA-MB-231 breast carcinoma, MDA-MB-468 breast carcinoma, MCF7 breast carcinoma, Hs578T breast carcinoma, MALME-3M melanoma, SK-MEL-2 melanoma, SK-OV-3 ovarian carcinoma, DU-145 prostate carcinoma, PC-3 prostate carcinoma, all cell lines along with major genetic alterations are listed on Table 2. Pooled donor human umbilical vein endothelial cells (HUVEC, Lonza, cat. CC-2519) and human mesenchymal stem cells (hMSC, Lonza, cat. PT-2501) were purchased from Lonza (Walkersville, MD).
PDMR cell lines were grown in complete medium (DC medium): Dulbecco's modified Eagle's medium (DMEM)/F12 supplemented with 5% fetal bovine serum (FBS), 2 mM L-glutamine, 100 U/mL penicillin and 100 µg/ml streptomycin, 0.4 µg/ml hydrocortisone, 10 ng/ml epidermal growth factor (EGF) recombinant human protein, 24 µg/mL adenine, and 0.1 mg/mL primocin. During culture from frozen stock vials, PDMR cells were cultured in the same medium containing 10 µM Y-27632 (see Table 3). The PDCs were cultured in complete DMEM/F12 media without 10 microM Y-27632 dihydrochloride for at least two passages prior to the screen. The pooled donor HUVEC and hMSC were cultured in endothelial cell growth medium 2 (PromoCell, Heidelberg, Germany, cat. C-22011) and mesenchymal stem cell growth medium 2 (PromoCell, cat. C-28009), respectively. For all experiments, HUVEC and hMSC were used at passages </=5.
[…]

[1] = curve of first compound, second compound 0.1 µM
[2] = curve of first compound, second compound 0.316 µM
[3] = curve of first compound, second compound 1 µM
[4] = curve of first compound, second compound 3.16 µM
[5] = curve of first compound, second compound 10 µM

Structure (SMILES): COc1c(OCCCN2CCOCC2)ccc2c3n(c(=NC(=O)c4cnc(N)nc4)nc12)CCN3 + CC(C)NCC(C(=O)N1CCN(c2ncnc3c2C(C)CC3O)CC1)c1ccc(Cl)cc1
- IC50 [1]: 49.2 nM
- IC50 [2]: 31.7 nM
- IC50 [3]: 14.6 nM
- IC50 [4]: < 3.16 nM
- IC50 [5]: < 3.16 nM
- viability, T/C (second compound 0.1 µM, first compound 0.00316 µM): 86%
- viability, T/C (second compound 0.1 µM, first compound 0.01 µM): 80.2%
- viability, T/C (second compound 0.1 µM, first compound 0.0316 µM): 58.3%
- viability, T/C (second compound 0.1 µM, first compound 0.1 µM): 37%
- viability, T/C (second compound 0.1 µM, first compound 0.316 µM): 9.3%
- viability, T/C (second compound 0.1 µM, first compound 1 µM): 11.8%
- viability, T/C (second compound 0.316 µM, first compound 0.00316 µM): 75.1%
- viability, T/C (second compound 0.316 µM, first compound 0.01 µM): 65.8%
- viability, T/C (second compound 0.316 µM, first compound 0.0316 µM): 49.8%
- viability, T/C (second compound 0.316 µM, first compound 0.1 µM): 30.5%
- viability, T/C (second compound 0.316 µM, first compound 0.316 µM): 9.83%
- viability, T/C (second compound 0.316 µM, first compound 1 µM): 12.4%
- viability, T/C (second compound 1 µM, first compound 0.00316 µM): 61.9%
- viability, T/C (second compound 1 µM, first compound 0.01 µM): 56.4%
- viability, T/C (second compound 1 µM, first compound 0.0316 µM): 37.7%
- viability, T/C (second compound 1 µM, first compound 0.1 µM): 22%
- viability, T/C (second compound 1 µM, first compound 0.316 µM): 10.7%
- viability, T/C (second compound 1 µM, first compound 1 µM): 11.2%
- viability, T/C (second compound 3.16 µM, first compound 0.00316 µM): 45.9%
- viability, T/C (second compound 3.16 µM, first compound 0.01 µM): 48.7%
- viability, T/C (second compound 3.16 µM, first compound 0.0316 µM): 35.4%
- viability, T/C (second compound 3.16 µM, first compound 0.1 µM): 32%
- viability, T/C (second compound 3.16 µM, first compound 0.316 µM): 9.39%
- viability, T/C (second compound 3.16 µM, first compound 1 µM): 10.6%
- viability, T/C (second compound 10 µM, first compound 0.00316 µM): 33.8%
- viability, T/C (second compound 10 µM, first compound 0.01 µM): 34.9%
- viability, T/C (second compound 10 µM, first compound 0.0316 µM): 37.4%
- viability, T/C (second compound 10 µM, first compound 0.1 µM): 21.7%
- viability, T/C (second compound 10 µM, first compound 0.316 µM): 6.28%
- viability, T/C (second compound 10 µM, first compound 1 µM): 5.07%

Structure (SMILES): Cn1cnc2c(F)c(Nc3ccc(Br)cc3Cl)c(C(=O)NOCCO)cc21
- viability, T/C (compound 0.00949 µM): 97.5% and 94.6%
- viability, T/C (compound 0.03 µM): 102% and 98%
- viability, T/C (compound 0.0949 µM): 105% and 97.7%
- viability, T/C (compound 0.3 µM): 103% and 116%
- viability, T/C (compound 0.949 µM): 107% and 102%
- viability, T/C (compound 3 µM): 111% and 109%
- IC50 (curve of compound): > 3000 nM

Structure (SMILES): CC(=O)c1c(C)c2cnc(Nc3ccc(N4CCNCC4)cn3)nc2n(C2CCCC2)c1=O + CC(C)NCC(C(=O)N1CCN(c2ncnc3c2C(C)CC3O)CC1)c1ccc(Cl)cc1
- IC50 [1]: > 300 nM
- IC50 [2]: > 300 nM
- IC50 [3]: 275 nM
- IC50 [4]: 23.6 nM
- IC50 [5]: < 0.949 nM
- viability, T/C (second compound 0.1 µM, first compound 0.000949 µM): 96.3%
- viability, T/C (second compound 0.1 µM, first compound 0.003 µM): 100%
- viability, T/C (second compound 0.1 µM, first compound 0.00949 µM): 97.1%
- viability, T/C (second compound 0.1 µM, first compound 0.03 µM): 90.7%
- viability, T/C (second compound 0.1 µM, first compound 0.0949 µM): 89.6%
- viability, T/C (second compound 0.1 µM, first compound 0.3 µM): 86.8%
- viability, T/C (second compound 0.316 µM, first compound 0.000949 µM): 80.9%
- viability, T/C (second compound 0.316 µM, first compound 0.003 µM): 82.7%
- viability, T/C (second compound 0.316 µM, first compound 0.00949 µM): 87.9%
- viability, T/C (second compound 0.316 µM, first compound 0.03 µM): 81.8%
- viability, T/C (second compound 0.316 µM, first compound 0.0949 µM): 77.1%
- viability, T/C (second compound 0.316 µM, first compound 0.3 µM): 73.9%
- viability, T/C (second compound 1 µM, first compound 0.000949 µM): 67.4%
- viability, T/C (second compound 1 µM, first compound 0.003 µM): 71.4%
- viability, T/C (second compound 1 µM, first compound 0.00949 µM): 63.1%
- viability, T/C (second compound 1 µM, first compound 0.03 µM): 62.4%
- viability, T/C (second compound 1 µM, first compound 0.0949 µM): 55.5%
- viability, T/C (second compound 1 µM, first compound 0.3 µM): 49.9%
- viability, T/C (second compound 3.16 µM, first compound 0.000949 µM): 45.1%
- viability, T/C (second compound 3.16 µM, first compound 0.003 µM): 57.4%
- viability, T/C (second compound 3.16 µM, first compound 0.00949 µM): 52.2%
- viability, T/C (second compound 3.16 µM, first compound 0.03 µM): 48.2%
- viability, T/C (second compound 3.16 µM, first compound 0.0949 µM): 46.9%
- viability, T/C (second compound 3.16 µM, first compound 0.3 µM): 39.4%
- viability, T/C (second compound 10 µM, first compound 0.000949 µM): 41.6%
- viability, T/C (second compound 10 µM, first compound 0.003 µM): 42.7%
- viability, T/C (second compound 10 µM, first compound 0.00949 µM): 36.9%
- viability, T/C (second compound 10 µM, first compound 0.03 µM): 34%
- viability, T/C (second compound 10 µM, first compound 0.0949 µM): 34.5%
- viability, T/C (second compound 10 µM, first compound 0.3 µM): 23.2%
